{"source": "BindingDB's records for doi:10.1021/jm201482p", "about": "(University of Nebraska Medical Center, 2012)", "target": "Cholinesterase (Homo sapiens, UniProt P06276)", "sequence (P06276 whole entry)": "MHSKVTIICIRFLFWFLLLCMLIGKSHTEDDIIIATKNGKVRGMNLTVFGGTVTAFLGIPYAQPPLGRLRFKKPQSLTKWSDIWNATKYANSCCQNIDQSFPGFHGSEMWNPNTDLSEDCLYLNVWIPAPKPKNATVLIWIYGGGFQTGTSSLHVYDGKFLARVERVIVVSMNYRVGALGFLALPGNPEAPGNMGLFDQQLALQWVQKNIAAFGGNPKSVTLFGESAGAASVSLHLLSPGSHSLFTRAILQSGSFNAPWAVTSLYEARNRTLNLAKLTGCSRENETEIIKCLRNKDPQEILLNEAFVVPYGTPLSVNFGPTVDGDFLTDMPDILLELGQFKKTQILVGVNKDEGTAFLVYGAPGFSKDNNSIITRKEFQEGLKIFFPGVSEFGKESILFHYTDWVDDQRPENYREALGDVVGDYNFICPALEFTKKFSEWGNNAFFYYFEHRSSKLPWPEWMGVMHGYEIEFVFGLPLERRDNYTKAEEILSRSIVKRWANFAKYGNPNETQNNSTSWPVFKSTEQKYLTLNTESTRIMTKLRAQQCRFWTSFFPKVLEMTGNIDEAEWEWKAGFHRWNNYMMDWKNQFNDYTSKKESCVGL", "test": "Inhibition of human BChE after 30 mins by microplate reader method", "data": [{"smiles": "CC(C)(C)c1cc(C(C)(C)C)c2c(c1F)COP(=O)(OC[C@H]1O[C@@H](n3cc(I)c(=O)[nH]c3=O)C[C@@H]1O)O2", "note": "(stereo partly specified)", "values": [{"measurement": "IC50", "result": "> 60", "unit": "mM"}]}]}
